{"source": "patent US12077503B2", "about": "“Substituted cyclic amides and their use as herbicides” (FMC CORPORATION, priority 2015, dated 2024)", "type_in_all_cases": "in vivo", "key": {"Kochia (Kochia scoparia) [1]": {"system": "Kochia (Kochia scoparia)", "experiment": "Test A preemergence", "conditions": "for Plant response rating, Kochia: 125 g ai/ha, preemergence, 0 to 100 scale (0 no effect, 100 complete control); for Kochia plant response rating (0 to 100 scale): Preemergence, 500 g ai/ha, 0 is no effect, 100 is complete control", "description": "(§1) Seeds of plant species selected from barnyardgrass (Echinochloa crus-galli), Kochia (Kochia scoparia), ragweed (common ragweed, Ambrosia elatior), ryegrass, Italian (Italian ryegrass, Lolium multiflorum), crabgrass, large (Digitaria sanguinalis), giant foxtail (Setaria faberii), green foxtail (Setaria viridis), morningglory (Ipomoea spp.), pigweed (Amaranthus retroflexus), velvetleaf (Abutilon theophrasti), wheat (Triticum aestivum), and corn (Zea mays) were planted into a blend of loam soil and sand and treated preemergence with a directed soil spray using test chemicals formulated in anon-phytotoxic solvent mixture which included a surfactant.\n(§2) At the same time, plants selected from these crop and weed species and also blackgrass (Alopecurus myosuroides), and Galium (catchweed bedstraw, Galium aparine) were planted in pots containing the same blend of loam soil and sand and treated with postemergence applications of test chemicals formulated in the same manner. Plants ranged in height from 2 to 10 cm and were in the one- to two-leaf stage for the postemergence treatment. Treated plants and untreated controls were maintained in a greenhouse for approximately 10 d, after which time all treated plants were compared to untreated controls and visually evaluated for injury. Plant response ratings, summarized in Table A, are based on a 0 to 100 scale where 0 is no effect and 100 is complete control. A dash (-) response means no test result."}, "[2]": {"system": "pigweed (Amaranthus retroflexus)", "experiment": "Test A preemergence", "conditions": "for Plant response rating, Pigweed: 125 g ai/ha, preemergence, 0 to 100 scale (0 no effect, 100 complete control); for Pigweed plant response rating (0 to 100 scale): Preemergence, 500 g ai/ha, 0 is no effect, 100 is complete control", "description": "as §1, §2"}, "[3]": {"system": "ragweed (common ragweed, Ambrosia elatior)", "experiment": "Test A preemergence", "conditions": "for Plant response rating, Ragweed: 125 g ai/ha, preemergence, 0 to 100 scale (0 no effect, 100 complete control); for Ragweed plant response rating (0 to 100 scale): Preemergence, 500 g ai/ha, 0 is no effect, 100 is complete control", "description": "as §1, §2"}, "[4]": {"system": "ryegrass, Italian (Italian ryegrass, Lolium multiflorum)", "experiment": "Test A preemergence", "conditions": "for Plant response rating, Ryegrass, Italian: 125 g ai/ha, preemergence, 0 to 100 scale (0 no effect, 100 complete control); for Ryegrass, Italian plant response rating (0 to 100 scale): Preemergence, 500 g ai/ha, 0 is no effect, 100 is complete control", "description": "as §1, §2"}, "[5]": {"system": "barnyardgrass (Echinochloa crus-galli)", "experiment": "Test A preemergence", "conditions": "for Plant response rating, Barnyardgrass: 125 g ai/ha, preemergence, 0 to 100 scale (0 no effect, 100 complete control); for Barnyardgrass plant response rating (0 to 100 scale): Preemergence, 500 g ai/ha, 0 is no effect, 100 is complete control", "description": "as §1, §2"}, "[6]": {"system": "giant foxtail (Setaria faberii)", "experiment": "Test A preemergence", "conditions": "for Plant response rating, Foxtail, Giant: 125 g ai/ha, preemergence, 0 to 100 scale (0 no effect, 100 complete control); for Foxtail, Giant plant response rating (0 to 100 scale): Preemergence, 500 g ai/ha, 0 is no effect, 100 is complete control", "description": "as §1, §2"}, "[7]": {"system": "sedge, umbrella (small-flower umbrella sedge, Cyperus difformis)", "experiment": "Test B flooded paddy test", "conditions": "Flood, 250 g ai/ha; 0 to 100 scale where 0 is no effect and 100 is complete control; 13 to 15 d", "protocol": "(§3) Plant species in the flooded paddy test selected from rice (Oryra sativa), sedge, umbrella (small-flower umbrella sedge, Cyperus difformis), ducksalad (Heteranthera limosa), and barnyardgrass (Echinochloa crus-galli) were grown to the 2-leaf stage for testing. At time of treatment, test pots were flooded to 3 cm above the soil surface, treated by application of test compounds directly to the paddy water, and then maintained at that water depth for the duration of the test. Treated plants and controls were maintained in a greenhouse for 13 to 15 d, after which time all species were compared to controls and visually evaluated. Plant response ratings, summarized in Table B, are based on a scale of 0 to 100 where 0 is no effect and 100 is complete control. A dash (-) response means no test result."}, "[8]": {"system": "barnyardgrass (Echinochloa crus-galli)", "experiment": "Test B flooded paddy test", "conditions": "Flood, 250 g ai/ha; 0 to 100 scale where 0 is no effect and 100 is complete control; 13 to 15 d", "protocol": "as §3"}, "[9]": {"system": "ducksalad (Heteranthera limosa)", "experiment": "Test B flooded paddy test", "conditions": "Flood, 250 g ai/ha; 0 to 100 scale where 0 is no effect and 100 is complete control; 13 to 15 d", "protocol": "as §3"}, "rice (Oryra sativa)": {"system": "rice (Oryra sativa)", "experiment": "Test B flooded paddy test", "conditions": "Flood, 250 g ai/ha; 0 to 100 scale where 0 is no effect and 100 is complete control; 13 to 15 d", "protocol": "as §3"}, "Kochia (Kochia scoparia) [10]": {"system": "Kochia (Kochia scoparia)", "experiment": "Test A postemergence", "description": "as §1, §2"}, "[11]": {"system": "pigweed (Amaranthus retroflexus)", "experiment": "Test A postemergence", "description": "as §1, §2"}, "[12]": {"system": "ragweed (common ragweed, Ambrosia elatior)", "experiment": "Test A postemergence", "description": "as §1, §2"}, "[13]": {"system": "ryegrass, Italian (Italian ryegrass, Lolium multiflorum)", "experiment": "Test A postemergence", "description": "as §1, §2"}, "[14]": {"system": "wheat (Triticum aestivum)", "experiment": "Test A postemergence", "description": "as §1, §2"}, "[15]": {"system": "Galium (catchweed bedstraw, Galium aparine)", "experiment": "Test A postemergence", "description": "as §1, §2"}, "[16]": {"system": "blackgrass (Alopecurus myosuroides)", "experiment": "Test A postemergence", "description": "as §1, §2"}, "corn (Zea mays)": {"system": "corn (Zea mays)", "experiment": "Test A postemergence", "description": "as §1, §2"}, "[17]": {"system": "barnyardgrass (Echinochloa crus-galli)", "experiment": "Test A postemergence", "description": "as §1, §2"}, "[18]": {"system": "giant foxtail (Setaria faberii)", "experiment": "Test A postemergence", "description": "as §1, §2"}, "[19]": {"conditions": "500 g ai/ha, postemergence, 0 to 100 scale, 0 no effect, 100 complete control"}, "[20]": {"conditions": "Postemergence, 125 g ai/ha, visual injury, 0 to 100 scale (0 no effect, 100 complete control), approx. 10 d"}}, "data": [{"smiles": "O=C1NCC(c2cccc(F)c2)C1C(=O)Nc1ccccc1C(F)(F)F", "note": "(racemic) [Compound 376]", "values": [{"measurement": "Plant response rating, Kochia", "setting": "Kochia (Kochia scoparia) [1]", "value": 0}, {"measurement": "Kochia plant response rating (0 to 100 scale)", "setting": "Kochia (Kochia scoparia) [1]", "value": 0}, {"measurement": "Plant response rating, Pigweed", "setting": "[2]", "value": 0}, {"measurement": "Pigweed plant response rating (0 to 100 scale)", "setting": "[2]", "value": 0}, {"measurement": "Plant response rating, Ragweed", "setting": "[3]", "value": 0}, {"measurement": "Ragweed plant response rating (0 to 100 scale)", "setting": "[3]", "value": 0}, {"measurement": "Plant response rating, Ryegrass, Italian", "setting": "[4]", "value": 0}, {"measurement": "Ryegrass, Italian plant response rating (0 to 100 scale)", "setting": "[4]", "value": 20}, {"measurement": "Plant response rating, Barnyardgrass", "setting": "[5]", "value": 90}, {"measurement": "Barnyardgrass plant response rating (0 to 100 scale)", "setting": "[5]", "value": 90}, {"measurement": "Plant response rating, Foxtail, Giant", "setting": "[6]", "value": 90}, {"measurement": "Foxtail, Giant plant response rating (0 to 100 scale)", "setting": "[6]", "value": 90}, {"measurement": "Plant response rating, Sedge, Umbrella", "setting": "[7]", "value": 0}, {"measurement": "Plant response rating, Barnyardgrass", "setting": "[8]", "value": 70}, {"measurement": "Plant response rating, Ducksalad", "setting": "[9]", "value": 100}, {"measurement": "Plant response rating, Rice", "setting": "rice (Oryra sativa)", "value": 0}, {"measurement": "Plant response rating, Kochia", "setting": "Kochia (Kochia scoparia) [10]; [19]", "value": 20}, {"measurement": "Plant response rating, Kochia", "setting": "Kochia (Kochia scoparia) [10]; [20]", "value": 0}, {"measurement": "Plant response rating, Pigweed", "setting": "[11]; [19]", "value": 0}, {"measurement": "Plant response rating, Pigweed", "setting": "[11]; [20]", "value": 0}, {"measurement": "Plant response rating, Ragweed", "setting": "[12]; [19]", "value": 20}, {"measurement": "Plant response rating, Ragweed", "setting": "[12]; [20]", "value": 0}, {"measurement": "Plant response rating, Ryegrass, Italian", "setting": "[13]; [19]", "value": 20}, {"measurement": "Plant response rating, Ryegrass, Italian", "setting": "[13]; [20]", "value": 0}, {"measurement": "Plant response rating, Wheat", "setting": "[14]; [19]", "value": 0}, {"measurement": "Plant response rating, Wheat", "setting": "[14]; [20]", "value": 0}, {"measurement": "Plant response rating, Galium", "setting": "[15]; [19]", "value": 30}, {"measurement": "Plant response rating, Galium", "setting": "[15]; [20]", "value": 30}, {"measurement": "Plant response rating, Blackgrass", "setting": "[16]; [19]", "value": 40}, {"measurement": "Plant response rating, Blackgrass", "setting": "[16]; [20]", "value": 0}, {"measurement": "Plant response rating, Corn", "setting": "corn (Zea mays); [19]", "value": 30}, {"measurement": "Plant response rating, Corn", "setting": "corn (Zea mays); [20]", "value": 0}, {"measurement": "Plant response rating, Barnyardgrass", "setting": "[17]; [19]", "value": 90}, {"measurement": "Plant response rating, Barnyardgrass", "setting": "[17]; [20]", "value": 90}, {"measurement": "Plant response rating, Foxtail, Giant", "setting": "[18]; [19]", "value": 90}, {"measurement": "Plant response rating, Foxtail, Giant", "setting": "[18]; [20]", "value": 90}]}, {"smiles": "O=C1NCC(c2ccccc2-c2ccccc2)C1C(=O)Nc1ccccc1F", "note": "(racemic) [Compound 381]", "values": [{"measurement": "Plant response rating, Kochia", "setting": "Kochia (Kochia scoparia) [1]", "value": 0}, {"measurement": "Kochia plant response rating (0 to 100 scale)", "setting": "Kochia (Kochia scoparia) [1]", "value": 0}, {"measurement": "Plant response rating, Pigweed", "setting": "[2]", "value": 0}, {"measurement": "Pigweed plant response rating (0 to 100 scale)", "setting": "[2]", "value": 0}, {"measurement": "Plant response rating, Ragweed", "setting": "[3]", "value": 0}, {"measurement": "Ragweed plant response rating (0 to 100 scale)", "setting": "[3]", "value": 0}, {"measurement": "Plant response rating, Ryegrass, Italian", "setting": "[4]", "value": 0}, {"measurement": "Ryegrass, Italian plant response rating (0 to 100 scale)", "setting": "[4]", "value": 0}, {"measurement": "Plant response rating, Barnyardgrass", "setting": "[5]", "value": 0}, {"measurement": "Barnyardgrass plant response rating (0 to 100 scale)", "setting": "[5]", "value": 20}, {"measurement": "Plant response rating, Foxtail, Giant", "setting": "[6]", "value": 0}, {"measurement": "Foxtail, Giant plant response rating (0 to 100 scale)", "setting": "[6]", "value": 30}, {"measurement": "Plant response rating, Sedge, Umbrella", "setting": "[7]", "value": 0}, {"measurement": "Plant response rating, Barnyardgrass", "setting": "[8]", "value": 0}, {"measurement": "Plant response rating, Ducksalad", "setting": "[9]", "value": 0}, {"measurement": "Plant response rating, Rice", "setting": "rice (Oryra sativa)", "value": 0}, {"measurement": "Plant response rating, Kochia", "setting": "Kochia (Kochia scoparia) [10]; [19]", "value": 0}, {"measurement": "Plant response rating, Kochia", "setting": "Kochia (Kochia scoparia) [10]; [20]", "value": 0}, {"measurement": "Plant response rating, Pigweed", "setting": "[11]; [19]", "value": 0}, {"measurement": "Plant response rating, Pigweed", "setting": "[11]; [20]", "value": 0}, {"measurement": "Plant response rating, Ragweed", "setting": "[12]; [19]", "value": 0}, {"measurement": "Plant response rating, Ragweed", "setting": "[12]; [20]", "value": 0}, {"measurement": "Plant response rating, Ryegrass, Italian", "setting": "[13]; [19]", "value": 0}, {"measurement": "Plant response rating, Ryegrass, Italian", "setting": "[13]; [20]", "value": 0}, {"measurement": "Plant response rating, Wheat", "setting": "[14]; [19]", "value": 0}, {"measurement": "Plant response rating, Wheat", "setting": "[14]; [20]", "value": 0}, {"measurement": "Plant response rating, Galium", "setting": "[15]; [19]", "value": 0}, {"measurement": "Plant response rating, Galium", "setting": "[15]; [20]", "value": 0}, {"measurement": "Plant response rating, Blackgrass", "setting": "[16]; [19]", "value": 0}, {"measurement": "Plant response rating, Blackgrass", "setting": "[16]; [20]", "value": 0}, {"measurement": "Plant response rating, Corn", "setting": "corn (Zea mays); [19]", "value": 0}, {"measurement": "Plant response rating, Corn", "setting": "corn (Zea mays); [20]", "value": 0}, {"measurement": "Plant response rating, Barnyardgrass", "setting": "[17]; [19]", "value": 30}, {"measurement": "Plant response rating, Barnyardgrass", "setting": "[17]; [20]", "value": 0}, {"measurement": "Plant response rating, Foxtail, Giant", "setting": "[18]; [19]", "value": 20}, {"measurement": "Plant response rating, Foxtail, Giant", "setting": "[18]; [20]", "value": 0}]}]}
